Measured values published in patent publication US20260109714A1, “PYRIMIDINE-FUSED RING COMPOUND, AND PREPARATION METHOD THEREFOR AND USE THEREOF” (GENFLEET THERAPEUTICS (SHANGHAI) INC., priority 2022, published 2026).

Assays:
[1] = test system: AsPC-1 human pancreatic cancer cell with KRAS G12D mutation; test: Cell proliferation inhibition experiment, 3D CellTiter-Glo, AsPC-1; format: cell-based; details: AsPC-1 cells, 3D spheroid, 5 days
Source text: (§1) AsPC-1 was purchased from ATCC, Article No.: CRL-1682; AGS was purchased from ATCC, Article No.: CRL-1739; RPMI1640 was purchased from Gibco, Article No.: 11875-093 2235123; F12K was purchased from Gibco, Article No.: 21127-022; FBS was purchased from Gibco, Article No.: 10099-141C; the trypsin (containing EDTA) was purchased from Gibco, Article No.: 25200-072; CellTiter Glo-3D was purchased from Progema, Article No.: G9683; the 384-well spheroid plate was purchased from Corning, Article No.: 3830; the white-bottom opaque 384-well plate was purchased from Corning, Article No.: 3570; the cell counter was purchased from CHEMOMETEC, model: NC-200; the microplate reader was purchased from PerkinElmer, model: Envison;
(§2) AsPC-1, an endogenous human pancreatic cancer cell AsPC-1 with KRAS^G12D mutation, was cultured in RPMI-1640 medium containing 10% FBS. AGS, a human gastric cancer cell line with KRAS^G12D mutation, was cultured in F-12K medium containing 10% FBS. Cells in logarithmic growth period were digested with trypsin (containing EDTA), collected and counted. 800 AsPC-1 cells/well or 400 […] were inoculated in a 384-well spheroid plate, and cultured overnight in an incubator with 5% CO2 to establish a 3D cell model. 1000× compound stock solutions with gradient concentrations of 3.16 times were prepared with DMSO, and 100-fold diluted to 10× compound stock solutions with the culture medium. The 10× compound stock solution was added to each cell culture well on the second day after cell inoculation, to give a final concentration of 1× and DMSO content of 0.1%. DMSO was used as the control, and the culture medium was used as the blank. After the compound was added, the cells were cultured for 5 days. 30 μl CellTiter-Glo working solution was added to each well, and mixed uniformly. The cells were incubated for 30 min, and allowed to stand at room temperature for 30 min. 40 μl of the mixture was transferred to a white-bottom opaque 384-well plate, and the luminescence was read on a microplate reader. The inhibition rate on cell proliferation was calculated by a formula: IR (%)=(RLU of control−RLU of compound)/(RLU of control−RLU of blank)×100%. The gradient concentrations of the compound and the corresponding inhibition rates were fitted by using XLFit four-parameter method, and the IC50 value was calculated. […] The results of some exemplary compounds are shown in Table 2 below (—means not tested).

AGS p-ERK = test: Cell assay for p-ERK (HTRF, Advance ERK phospho-T202/Y204 kit); format: cell-based, human; details: AGS cells (KRAS G12D), 3 hrs with compound, inhibition of p-ERK level
Procedure: AGS was purchased from ATCC, Article No.: CRL-1739; F12K was purchased from Gibco, Article No.: 21127-022; FBS was purchased from Gibco, Article No.: 10099-141C; the trypsin (containing EDTA) was purchased from Gibco, Article No.: 25200-072; DMSO was purchased from VWRAMRESCO, Article No.: 0231-500ML; the 96-well cell culture plate was purchased from Corning, Article No.: 3599; the white-bottom opaque 96-well plate was purchased from Cisbio, Article No.: 66PL96025; Advance ERK phospho-T202/Y204 kit was purchased from Cisbio, Article No.: 64AERPEH; the cell counter was purchased from CHEMOMETEC, model: NC-200; the microplate reader was purchased from PerkinElmer, model: Envison.
AGS, an endogenous human gastric adenocarcinoma cell line with KRAS^G12D mutation, was cultured in F12K+10% FBS medium. On the first day of the experiment, cells in logarithmic growth period were digested with trypsin (containing EDTA), collected and counted, and about 20,000 cells/well were inoculated in a 96-well cell culture plate and cultured overnight in an incubator with 5% CO2. 1000× compound stock solutions with gradient concentrations of 3.16 times were prepared with DMSO, and 200-fold diluted to 5× compound stock solutions with the above culture medium. The 5× compound stock solution was added to each cell culture well on the second day after cell inoculation, to give a final concentration of 1× and DMSO content of 0.1%. DMSO was used as experimental control. After adding the compound, the cells were continuously cultured for 3 hrs. Then, the culture medium in the well was removed, and 50 μl/well of cell lysis buffer (from Advanced ERK phospho-T202/Y204 kit, the same hereinafter) was added, and mixed uniformly. The cells were cultured for 30 min. Then 16 μl of the mixture was transferred to a white-bottom opaque 96-well plate, and 16 μl of the cell lysis buffer was added to an additional well and used as a blank. After that, 4 μl of p-ERK HTRF antibody mixed solution (from Advanced ERK Phos Pho-T202/Y204 Kit) was added to each well. After incubation for 4 hrs, the fluorescence value (RLU) of HTRF was read on a microplate reader. The inhibition rate of the compound on p-ERK level was calculated by the formula IR (%)=(RLU of control−RLU of compound)/(RLU of control−RLU of blank)×100%. The compound concentration and the corresponding inhibition rate on p-ERK level in the cells were fitted by using Prism 8 four-parameter method, and the IC50 value was calculated.

[2] = test system: AGS human gastric cancer cell line with KRAS G12D mutation; test: Cell proliferation inhibition experiment, 3D CellTiter-Glo, AGS; format: cell-based; details: AGS cells, 3D spheroid, 5 days
Source text: as §1, §2

IC50 [1] [µM] | IC50 (AGS p-ERK) [µM] | IC50 [2] [µM] | SMILES | IC50 ([1]; Homo sapiens, ASPC1, 120 h) [µM] | IC50 (AGS p-ERK; Homo sapiens) [µM] | IC50 ([2]; Homo sapiens, 120 h) [µM]
– | – | – | Cc1cc(-c2nc3c4c(nc(OCC5(CN6CCOCC6)CC5)nc4c2F)N2C[C@H]4CC[C@H](N4)C2[C@H](C)O3)c(C)c(N)c1C1CC1 (stereo partly drawn) [Z716] | 0.0892 | 0.0818 | 0.0486
0.0442 | 0.0153 | 0.034 | C[C@@H]1Oc2nc(-c3cc(N)cc4cccc(Cl)c34)c(F)c3nc(OC[C@]45CCCN4CC(F)(F)C5)nc(c23)N2C[C@H]3CC[C@H](N3)[C@@H]12 [Z737, 5-chloro-4-((5S,5aS,6S,9R)-12-(((R)-2,2-difluorotetrahydro-1H-pyrrolizin-7a(5H)-yl)methoxy)-1-fluoro-5-methyl-5a,6,7,8,9,10-hexahydro-5H-4-oxa-3,10a,11,13,14-pentaaza-6,9-methanonaphtho[1,8-ab]hepten-2-yl)naphthalen-2-amine] | – | – | –
– | – | – | C#Cc1cccc2cc(N)cc(-c3nc4c5c(nc(OCC67CC(F)(F)CN6CCC7=C)nc5c3F)N3C[C@H]5CC[C@H](N5)[C@H]3[C@H](C)O4)c12 (stereo partly drawn) [Z738] | 0.0299 | 0.0127 | 0.0442
– | – | – | C#Cc1c(F)ccc2cc(N)cc(-c3nc4c5c(nc(OC[C@]67CCCN6CC(F)(F)C7)nc5c3F)N3C[C@H]5CC[C@H](N5)[C@H]3[C@H](C)O4)c12 [Z739, 4-((5S,5aS,6S,9R)-12-(((R)-2,2-difluorotetrahydro-1H-pyrrolizin-7a(5H)-yl)methoxy)-1-fluoro-5-methyl-5a,6,7,8,9,10-hexahydro-5H-4-oxa-3,10a,11,13,14-pentaaza-6,9-methanonaphtho[1,8-ab]hepten-2-yl)-5-ethynylnaphthalen-2-amine] | 0.00616 | 0.00263 | 0.011
– | – | – | C[C@@H]1Oc2nc(-c3cc(N)cc4ccc(F)c(F)c34)c(F)c3nc(OC[C@]45CCCN4CC(F)(F)C5)nc(c23)N2C[C@H]3CC[C@H](N3)[C@@H]12 [Z740, 4-((5S,5aS,6S,9R)-12-(((R)-2,2-difluorotetrahydro-1H-pyrrolizin-7a(5H)-yl)methoxy)-1-fluoro-5-methyl-5a,6,7,8,9,10-hexahydro-5H-4-oxa-3,10a,11,13,14-pentaaza-6,9-methanonaphtho[1,8-ab]heptan-2-yl)-5,6-difluoronaphthalen-2-amine] | 0.026 | 0.00608 | 0.018
– | – | – | C#Cc1cccc2cc(N)cc(-c3nc4c5c(nc(OCC67CCCN6CCC7(F)F)nc5c3F)N3C[C@H]5CC[C@H](N5)[C@H]3[C@H](C)O4)c12 (stereo partly drawn) [Z741, 4-((5S,5aS,6S,9R)-12-((1,1-difluorotetrahydro-1H-pyrrolizin-7a(5H)-yl)methoxy)-1-fluoro-5-methyl-5a,6,7,8,9,10-hexahydro-5H-4-oxa-3,10a,11,13,14-pentaaza-6,9-methanonaphtho[1,8-ab]hepten-2-yl)-5-ethynylnaphthalen-2-amine] | 0.0101 | 0.00406 | 0.0192
– | – | – | C#Cc1cccc2cc(N)cc(-c3nc4c5c(nc(OCC(C)C(O)C(F)F)nc5c3F)N3C[C@H]5CC[C@H](N5)[C@H]3[C@H](C)O4)c12 (stereo partly drawn) [Z742] | 0.312 | 0.052 | 0.156
– | – | – | C[C@@H]1Oc2nc(-c3cc(N)cc(Cl)c3C(F)(F)F)c(F)c3nc(OC[C@]45CCCN4CC(F)(F)C5)nc(c23)N2C[C@H]3CC[C@H](N3)[C@@H]12 [Z743, 3-chloro-5-((5S,5aS,6S,9R)-12-(((R)-2,2-difluorotetrahydro-1H-pyrrolizin-7a(5H)-yl)methoxy)-1-fluoro-5-methyl-5a,6,7,8,9,10-hexahydro-5H-4-oxa-3,10a,11,13,14-pentaaza-6,9-methanonaphtho[1,8-ab]hepten-2-yl)-4-(trifluoromethyl) aniline] | 0.00216 | 0.00084 | 0.00195
– | – | – | C#Cc1cccc2cc(N)cc(-c3nc4c5c(nc(OCC6(CN7CCC(=C(F)F)C7)CC6)nc5c3F)N3C[C@H]5CC[C@H](N5)[C@H]3[C@H](C)O4)c12 [Z744] | 0.00199 | 0.00051 | 0.00286
– | – | – | C#Cc1cccc2cc(N)cc(-c3nc4c5c(nc(OCC67CCCN6CCC7=C(F)F)nc5c3F)N3C[C@H]5CC[C@H](N5)[C@H]3[C@H](C)O4)c12 (stereo partly drawn) [Z745, 4-((5S,5aS,6S,9R)-12-((1-(difluoromethylene)tetrahydro-1H-pyrrolizin-7a(5H)-yl)methoxy)-1-fluoro-5-methyl-5a,6,7,8,9,10-hexahydro-5H-4-oxa-3,10a,11,13,14-pentaaza-6,9-methanonaphtho[1,8-ab]hepten-2-yl)-5-ethynylnaphthalen-2-amine] | 0.00448 | 0.00084 | 0.00395
– | – | – | C#Cc1cccc2cc(N)cc(-c3nc4c5c(nc(OCC67CC(F)(F)CN6CC=C7C)nc5c3F)N3C[C@H]5CC[C@H](N5)[C@H]3[C@H](C)O4)c12 (stereo partly drawn) [Z748] | 0.0129 | 0.00463 | 0.0231
– | – | – | C#Cc1c(F)ccc2cccc(-c3nc4c5c(nc(OC[C@]67CCCN6CC=C7C)nc5c3F)N3C[C@H]5CC[C@H](N5)[C@H]3[C@H](C)O4)c12 [Z749] | 0.0115 | 0.00191 | 0.00713
– | – | – | C#Cc1cccc2cc(N)c(F)c(-c3nc4c5c(nc(OCC6(CN7CCOCC7)CC6)nc5c3F)N3C[C@H]5CC[C@H](N5)[C@H]3[C@H](C)O4)c12 [Z957, 5-ethynyl-3-fluoro-4-((5S,5aS,6S,9R)-1-fluoro-5-methyl-12-((1-(morpholinemethyl)cyclopropyl)methoxy)-5a,6,7,8,9,10-hexahydro-5H-4-oxa-3,10a,11,13,14-pentaaza-6,9-methanonaphtho[1,8-ab]hepten-2-yl)naphthalen-2-amine] | 0.00651 | 0.00097 | 0.00761
– | – | – | C#Cc1c(F)ccc2cccc(-c3cc4nc(OC[C@]56CCCN5CCC6=C)nc5c4c(n3)O[C@@H](C)[C@@H]3[C@@H]4CC[C@H](CN53)N4)c12 [Z958, (5S,5aS,6S,9R)-2-(8-ethynyl-7-fluoronaphthalen-1-yl)-5-methyl-12-(((R)-1-methylenetetrahydro-1H-pyrrolizin-7a(5H)-yl)methoxy)-5a,6,7,8,9,10-hexahydro-5H-4-oxy-3,10a,11,13,14-pentaaza-6,9-methanonaphtho[1,8-ab]heptene] | 0.0695 | 0.0292 | 0.0456
